Reference: patent US7074789B2, “Kinase inhibitors” (Amgen Inc., priority 1999, dated 2006)

Assays:
Format in all cases: biochemical
c-Met = target: T1, c-Met (Homo sapiens, UniProt P08581); experiment: Kinase inhibition assay (33P transfer), c-Met; settings: Table 2, kinase inhibition class; read-out: Met-1
T1 construct: Kinases are expressed as either kinase domains or full length constructs; made in house
In short: (§1)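 Recombinant kinase domains or full-length GST- or His-tagged constructs, from E. coli or baculovirus/High Five cells, sometimes with regulatory polypeptides. Transfer of 33P from ATP to plate-bound poly(Glu,Tyr) 4:1 or poly(Arg,Ser) 3:1 counted by liquid scintillation after phosphoric acid wash; IC50 is the concentration halving incorporation.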

Kdr = target: T2, Kdr (Homo sapiens, UniProt P35968); experiment: Kinase inhibition assay (33P transfer), Kdr; settings: Table 3; read-out: KDR-1
T2 construct: Kinases are expressed as either kinase domains or full length constructs; made in house
In short: (§2)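 GST/His-tagged kinase (domain or full length; E. coli or baculovirus) + [33P]ATP on plates coated with poly(Glu,Tyr) 4:1 or poly(Arg,Ser) 3:1; incubate, wash 0.5% H3PO4, add scintillant, count.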

EGFR = target: T3, EGFR (Homo sapiens, UniProt P00533); experiment: Kinase inhibition assay (33P transfer), EGFR; settings: Table 2, kinase inhibition class; read-out: EGFR-1
T3 construct: Kinases are expressed as either kinase domains or full length constructs; made in house
T3 sequence (P00533 25-1210, species assumed): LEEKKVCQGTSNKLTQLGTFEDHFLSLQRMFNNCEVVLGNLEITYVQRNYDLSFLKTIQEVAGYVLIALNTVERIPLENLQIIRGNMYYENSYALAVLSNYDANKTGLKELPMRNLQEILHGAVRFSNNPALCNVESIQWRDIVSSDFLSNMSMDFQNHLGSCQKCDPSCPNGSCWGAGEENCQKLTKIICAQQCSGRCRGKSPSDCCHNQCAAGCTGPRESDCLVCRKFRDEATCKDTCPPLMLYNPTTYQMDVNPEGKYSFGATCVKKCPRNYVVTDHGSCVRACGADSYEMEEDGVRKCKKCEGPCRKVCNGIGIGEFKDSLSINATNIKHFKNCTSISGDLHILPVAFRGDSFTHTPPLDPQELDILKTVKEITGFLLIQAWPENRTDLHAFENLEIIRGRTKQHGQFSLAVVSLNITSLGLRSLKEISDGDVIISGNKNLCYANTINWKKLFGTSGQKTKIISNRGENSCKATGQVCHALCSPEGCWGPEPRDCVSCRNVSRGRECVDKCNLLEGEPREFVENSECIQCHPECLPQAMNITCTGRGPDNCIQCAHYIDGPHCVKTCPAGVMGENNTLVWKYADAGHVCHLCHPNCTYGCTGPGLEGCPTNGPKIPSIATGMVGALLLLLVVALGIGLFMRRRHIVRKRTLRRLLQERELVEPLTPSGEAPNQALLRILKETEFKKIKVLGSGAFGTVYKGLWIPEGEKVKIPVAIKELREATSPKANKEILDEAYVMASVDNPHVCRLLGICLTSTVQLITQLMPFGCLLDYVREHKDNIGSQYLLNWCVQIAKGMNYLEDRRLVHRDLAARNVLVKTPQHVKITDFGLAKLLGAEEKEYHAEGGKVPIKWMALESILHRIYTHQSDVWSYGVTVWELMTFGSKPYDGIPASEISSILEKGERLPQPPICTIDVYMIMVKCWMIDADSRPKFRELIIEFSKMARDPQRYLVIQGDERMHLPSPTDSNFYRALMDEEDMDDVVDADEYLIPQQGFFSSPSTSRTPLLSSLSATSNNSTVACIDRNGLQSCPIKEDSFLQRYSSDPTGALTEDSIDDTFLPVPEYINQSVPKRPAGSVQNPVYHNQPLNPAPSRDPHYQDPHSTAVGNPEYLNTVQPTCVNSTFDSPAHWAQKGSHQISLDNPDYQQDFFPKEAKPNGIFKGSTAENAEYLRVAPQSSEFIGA
In short: as §1

Itk = target: T4, Itk (Homo sapiens, UniProt Q08881); experiment: Kinase inhibition assay (33P transfer), Itk; settings: Table 3; read-out: Itk-1
T4 construct: Kinases are expressed as either kinase domains or full length constructs; made in house
T4 sequence (Q08881 1-620): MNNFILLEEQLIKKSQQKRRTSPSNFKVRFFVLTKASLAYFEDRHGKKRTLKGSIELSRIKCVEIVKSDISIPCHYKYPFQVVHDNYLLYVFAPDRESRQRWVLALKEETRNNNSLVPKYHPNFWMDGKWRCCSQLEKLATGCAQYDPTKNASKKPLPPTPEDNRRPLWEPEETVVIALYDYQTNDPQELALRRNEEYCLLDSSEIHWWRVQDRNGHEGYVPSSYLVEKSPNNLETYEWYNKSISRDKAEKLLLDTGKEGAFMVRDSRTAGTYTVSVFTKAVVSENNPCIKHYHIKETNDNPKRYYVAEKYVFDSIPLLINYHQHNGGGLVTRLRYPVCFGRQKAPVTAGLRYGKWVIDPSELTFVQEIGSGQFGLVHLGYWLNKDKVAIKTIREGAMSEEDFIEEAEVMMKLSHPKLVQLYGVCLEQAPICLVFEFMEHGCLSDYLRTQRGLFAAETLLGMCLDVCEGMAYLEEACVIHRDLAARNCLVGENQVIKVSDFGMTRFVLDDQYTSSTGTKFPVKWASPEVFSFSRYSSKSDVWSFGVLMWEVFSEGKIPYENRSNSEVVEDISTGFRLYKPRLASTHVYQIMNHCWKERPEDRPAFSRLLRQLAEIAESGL
In short: as §1

AKT = target: T5, AKT (Homo sapiens, UniProt Q9Y243); experiment: Kinase inhibition assay (33P transfer), AKT; settings: Table 2, kinase inhibition class; read-out: AKT3-1
T5 construct: Kinases are expressed as either kinase domains or full length constructs; made in house
T5 sequence (Q9Y243 whole entry, the tested form may be a part): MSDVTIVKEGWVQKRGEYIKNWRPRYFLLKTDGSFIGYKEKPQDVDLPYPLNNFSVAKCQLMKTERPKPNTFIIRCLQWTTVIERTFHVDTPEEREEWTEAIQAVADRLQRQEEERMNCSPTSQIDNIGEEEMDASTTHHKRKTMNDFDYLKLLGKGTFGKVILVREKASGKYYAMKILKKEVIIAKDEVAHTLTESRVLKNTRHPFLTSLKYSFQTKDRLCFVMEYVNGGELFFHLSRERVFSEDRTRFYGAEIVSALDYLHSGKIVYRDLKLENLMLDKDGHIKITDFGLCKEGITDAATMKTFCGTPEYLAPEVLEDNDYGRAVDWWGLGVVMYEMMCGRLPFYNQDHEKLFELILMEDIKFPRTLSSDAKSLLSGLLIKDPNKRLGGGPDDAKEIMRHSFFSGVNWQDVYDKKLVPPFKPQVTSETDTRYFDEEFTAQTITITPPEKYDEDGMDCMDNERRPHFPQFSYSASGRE
In short: as §2

IGFR-1 = target: T6, IGFR-1 (Homo sapiens, UniProt P08069); experiment: Kinase inhibition assay (33P transfer), IGFR-1; settings: Table 2, kinase inhibition class
T6 construct: Kinases are expressed as either kinase domains or full length constructs; made in house
T6 sequence (P08069 31-1367): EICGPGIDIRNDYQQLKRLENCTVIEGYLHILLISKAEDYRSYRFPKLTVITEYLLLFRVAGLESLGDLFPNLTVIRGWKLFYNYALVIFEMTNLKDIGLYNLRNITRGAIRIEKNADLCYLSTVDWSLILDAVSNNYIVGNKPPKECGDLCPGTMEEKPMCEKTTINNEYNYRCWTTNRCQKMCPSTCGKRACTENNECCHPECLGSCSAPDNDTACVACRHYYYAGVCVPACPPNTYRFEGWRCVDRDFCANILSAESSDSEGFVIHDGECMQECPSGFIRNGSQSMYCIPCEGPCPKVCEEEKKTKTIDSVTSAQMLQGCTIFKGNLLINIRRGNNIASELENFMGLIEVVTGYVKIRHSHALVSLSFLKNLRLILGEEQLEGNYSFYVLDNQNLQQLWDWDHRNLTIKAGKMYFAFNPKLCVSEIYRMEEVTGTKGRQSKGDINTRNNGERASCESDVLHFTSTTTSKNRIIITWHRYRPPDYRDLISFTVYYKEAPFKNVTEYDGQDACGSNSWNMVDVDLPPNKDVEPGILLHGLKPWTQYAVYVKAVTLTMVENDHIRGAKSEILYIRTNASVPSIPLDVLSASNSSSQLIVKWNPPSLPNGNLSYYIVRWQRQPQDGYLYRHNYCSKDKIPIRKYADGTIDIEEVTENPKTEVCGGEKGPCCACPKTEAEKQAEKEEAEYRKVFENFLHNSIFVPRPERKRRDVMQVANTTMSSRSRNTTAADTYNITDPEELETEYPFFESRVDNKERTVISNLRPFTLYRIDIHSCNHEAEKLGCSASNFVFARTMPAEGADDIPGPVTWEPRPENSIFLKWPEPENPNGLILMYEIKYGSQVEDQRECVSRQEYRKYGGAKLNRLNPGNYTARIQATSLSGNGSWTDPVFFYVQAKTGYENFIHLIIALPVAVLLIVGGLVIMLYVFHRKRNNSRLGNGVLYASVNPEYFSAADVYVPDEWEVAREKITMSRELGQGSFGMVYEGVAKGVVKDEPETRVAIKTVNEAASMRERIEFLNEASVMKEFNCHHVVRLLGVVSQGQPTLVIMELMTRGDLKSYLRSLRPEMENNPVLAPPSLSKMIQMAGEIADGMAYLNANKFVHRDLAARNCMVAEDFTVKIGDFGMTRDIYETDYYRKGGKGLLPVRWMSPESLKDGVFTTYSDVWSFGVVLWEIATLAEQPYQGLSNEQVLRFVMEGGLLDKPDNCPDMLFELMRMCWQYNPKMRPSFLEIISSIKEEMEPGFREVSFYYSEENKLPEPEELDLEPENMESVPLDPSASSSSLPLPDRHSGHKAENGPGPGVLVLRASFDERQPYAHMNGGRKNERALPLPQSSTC

Zap-70 = target: T7, Zap-70 (Homo sapiens, UniProt P43403); experiment: Kinase inhibition assay (33P transfer), Zap-70; settings: Table 3; read-out: Zap-1
T7 construct: Kinases are expressed as either kinase domains or full length constructs; made in house
T7 sequence (P43403 1-619): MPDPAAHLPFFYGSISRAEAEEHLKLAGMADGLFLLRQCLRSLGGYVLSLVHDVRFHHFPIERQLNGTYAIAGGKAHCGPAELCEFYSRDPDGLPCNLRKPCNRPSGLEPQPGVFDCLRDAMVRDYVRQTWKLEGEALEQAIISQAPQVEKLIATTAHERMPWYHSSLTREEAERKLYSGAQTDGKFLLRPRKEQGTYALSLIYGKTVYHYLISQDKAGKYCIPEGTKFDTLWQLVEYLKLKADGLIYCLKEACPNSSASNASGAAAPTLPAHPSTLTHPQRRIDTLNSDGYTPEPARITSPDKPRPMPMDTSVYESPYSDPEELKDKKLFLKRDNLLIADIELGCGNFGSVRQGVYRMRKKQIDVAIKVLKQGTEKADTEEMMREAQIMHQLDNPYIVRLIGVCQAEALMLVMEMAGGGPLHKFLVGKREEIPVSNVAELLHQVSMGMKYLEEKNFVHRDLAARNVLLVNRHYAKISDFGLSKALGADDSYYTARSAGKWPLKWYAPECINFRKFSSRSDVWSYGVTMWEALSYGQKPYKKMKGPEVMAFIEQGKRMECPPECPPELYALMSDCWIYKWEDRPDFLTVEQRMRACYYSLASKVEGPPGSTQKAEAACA
In short: as §2

Lck = target: T8, Lck (Homo sapiens, UniProt P06239); experiment: Kinase inhibition assay (33P transfer), Lck; settings: Table 3; read-out: Lck-1
T8 construct: Kinases are expressed as either kinase domains or full length constructs; made in house
T8 sequence (P06239 whole entry, species assumed, the tested form may be a part): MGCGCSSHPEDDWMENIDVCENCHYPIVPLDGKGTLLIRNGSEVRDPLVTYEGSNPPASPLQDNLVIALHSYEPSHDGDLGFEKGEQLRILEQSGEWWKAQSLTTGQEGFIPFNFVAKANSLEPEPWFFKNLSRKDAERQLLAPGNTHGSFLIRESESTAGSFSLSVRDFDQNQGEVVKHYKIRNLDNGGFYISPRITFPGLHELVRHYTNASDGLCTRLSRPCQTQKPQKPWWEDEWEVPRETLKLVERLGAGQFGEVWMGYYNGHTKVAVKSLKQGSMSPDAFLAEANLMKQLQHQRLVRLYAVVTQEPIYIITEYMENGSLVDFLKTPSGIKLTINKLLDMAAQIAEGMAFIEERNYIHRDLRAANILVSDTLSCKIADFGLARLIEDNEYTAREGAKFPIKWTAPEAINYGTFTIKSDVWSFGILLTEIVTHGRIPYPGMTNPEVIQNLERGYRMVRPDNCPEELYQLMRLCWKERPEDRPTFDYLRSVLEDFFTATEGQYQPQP
In short: as §2

Measured: IC50

T1 sequence (P08581 25-1390): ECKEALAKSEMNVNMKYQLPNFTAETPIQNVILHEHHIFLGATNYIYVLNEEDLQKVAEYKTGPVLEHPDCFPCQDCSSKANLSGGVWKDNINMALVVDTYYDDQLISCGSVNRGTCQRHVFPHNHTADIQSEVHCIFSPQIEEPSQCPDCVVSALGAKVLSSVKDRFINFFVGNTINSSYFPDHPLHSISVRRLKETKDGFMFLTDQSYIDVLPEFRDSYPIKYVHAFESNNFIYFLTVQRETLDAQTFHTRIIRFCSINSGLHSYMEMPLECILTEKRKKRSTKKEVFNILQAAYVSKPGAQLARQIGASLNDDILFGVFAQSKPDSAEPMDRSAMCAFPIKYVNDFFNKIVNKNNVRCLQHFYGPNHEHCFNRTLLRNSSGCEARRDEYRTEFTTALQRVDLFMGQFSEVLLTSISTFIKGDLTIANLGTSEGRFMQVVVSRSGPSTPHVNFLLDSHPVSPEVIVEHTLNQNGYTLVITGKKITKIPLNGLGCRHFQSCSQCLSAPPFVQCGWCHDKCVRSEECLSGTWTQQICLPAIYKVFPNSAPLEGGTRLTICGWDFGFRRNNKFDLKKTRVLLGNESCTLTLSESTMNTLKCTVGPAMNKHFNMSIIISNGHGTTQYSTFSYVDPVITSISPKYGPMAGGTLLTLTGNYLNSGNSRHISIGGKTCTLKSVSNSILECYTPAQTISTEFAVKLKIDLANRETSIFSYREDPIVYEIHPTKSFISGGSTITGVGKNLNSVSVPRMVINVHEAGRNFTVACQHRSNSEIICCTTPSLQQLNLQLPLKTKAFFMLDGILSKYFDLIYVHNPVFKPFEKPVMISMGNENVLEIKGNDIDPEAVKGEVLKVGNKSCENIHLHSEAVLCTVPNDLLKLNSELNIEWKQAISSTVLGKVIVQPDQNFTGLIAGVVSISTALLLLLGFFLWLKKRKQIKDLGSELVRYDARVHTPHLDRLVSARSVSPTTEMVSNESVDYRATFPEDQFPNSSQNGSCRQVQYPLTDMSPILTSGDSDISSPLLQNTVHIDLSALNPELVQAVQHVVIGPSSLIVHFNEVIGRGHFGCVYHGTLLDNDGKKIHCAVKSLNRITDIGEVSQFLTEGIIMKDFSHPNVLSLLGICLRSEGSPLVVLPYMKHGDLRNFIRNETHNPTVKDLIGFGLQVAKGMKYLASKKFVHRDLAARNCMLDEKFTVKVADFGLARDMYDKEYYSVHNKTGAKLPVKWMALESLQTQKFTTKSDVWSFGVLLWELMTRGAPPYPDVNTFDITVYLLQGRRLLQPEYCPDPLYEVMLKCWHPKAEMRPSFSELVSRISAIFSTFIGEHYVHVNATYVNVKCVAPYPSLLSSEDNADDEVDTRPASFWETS

COc1cc(Nc2ncnc(-c3cccnc3)n2)cc(OC)c1OC [Compound 219]
> 13.3 µM: c-Met | EGFR | Itk | AKT | IGFR-1 | Zap-70 | Lck
1.18 to 7.07 µM: Kdr

COc1cc(Nc2ncnc(-n3c(NCCO)nc4ccccc43)n2)cc(OC)c1OC [Compound 391]
8 to 10.3 µM: Lck
0.914 to 5.49 µM: Kdr
> 10.3 µM: c-Met | EGFR | Itk | AKT | IGFR-1 | Zap-70

Fc1ccccc1Nc1ncnc(-c2ccccc2)n1 [Compound 20]
> 16.9 µM: c-Met | Kdr | EGFR | Itk | AKT | IGFR-1 | Zap-70 | Lck

c1ccc(COc2cccc(Nc3ncnc(-c4cccs4)n3)c2)cc1 [Compound 361]
> 12.5 µM: c-Met | Kdr | EGFR | Itk | AKT | IGFR-1 | Zap-70 | Lck

COc1cc(Nc2ncnc(N3CCOCC3)n2)cc(OC)c1OC [Compound 209]
> 13 µM: c-Met | Kdr | EGFR | Itk | IGFR-1 | Zap-70 | Lck
10.1 to 13 µM: AKT

COc1cccc(Nc2ncnc(-c3cccs3)n2)n1 [Compound 362]
> 15.8 µM: c-Met | Kdr | EGFR | Itk | AKT | IGFR-1 | Zap-70 | Lck

O=[N+]([O-])c1cccc(Nc2ncnc(-c3cccs3)n2)c1 [Compound 352]
> 15 µM: c-Met | Kdr | EGFR | Itk | AKT | IGFR-1 | Zap-70 | Lck

c1csc(-c2ncnc(Nc3ccncc3)n2)c1 [Compound 363]
> 17.6 µM: c-Met | Kdr | EGFR | Itk | AKT | IGFR-1 | Zap-70 | Lck

COc1cc(Nc2ncnc(-c3cccs3)n2)cc(OC)c1OC [Compound 217]
> 13.1 µM: EGFR | Itk | AKT | IGFR-1 | Zap-70
10.2 to 13.1 µM: c-Met
1.16 to 6.97 µM: Lck
6.97 to 10.2 µM: Kdr

COc1ccc(Nc2ncnc(-c3cccs3)n2)cc1OC [Compound 357]
> 14.3 µM: c-Met | Kdr | EGFR | Itk | AKT | IGFR-1 | Zap-70 | Lck

CCOC(=O)Cc1ccc(Nc2ncnc(-c3ccccc3)n2)cc1 [Compound 164]
> 13.5 µM: c-Met | Kdr | EGFR | Itk | AKT | IGFR-1 | Zap-70 | Lck

Fc1cccc(Nc2ncnc(-c3cccs3)n2)c1 [Compound 1073]
> 16.5 µM: c-Met | Kdr | EGFR | Itk | AKT | IGFR-1 | Zap-70 | Lck
